Test results from patent US20250302795A1, “SMALL MOLECULE COMPOUNDS WITH NEGATIVE REGULATORY EFFECTS ON Nrf2 SIGNALING [sequence] AND THEIR POTENTIAL APPLICATIONS” (Beijing Hebabiz Biotechnology Co., Inc., priority 2022, published 2025).

Columns and labels:
Type in all cases: in vivo, rat
[1] = Body weight of rats, high-fat diet non-alcoholic steatohepatitis model; conditions: positive control group, in g (unit assumed)
Description: (§1) The normal control group was fed a standard diet for twelve weeks while the other groups were fed a high-fat diet consisting of 88% basal diet+10% lard+2% cholesterol for twelve weeks. After establishing the model, the drug groups received their respective treatments at a dosage of 10 ml/kg while the normal and model groups received an equal volume of 0.5% CMC-Na solution. The rats were provided with ad libitum access to water and food, while the animal chamber was maintained under controlled conditions of quietness, natural lighting, a temperature of 25±0.5° C., and a humidity level of 55±5%. The rats' body weights were measured once per week and recorded.
The rats were weighed weekly to monitor the fluctuations in body weight within each experimental group.

[2] = system: rats with non-alcoholic steatohepatitis induced by high-fat diet; test: Liver indices, non-alcoholic steatohepatitis model induced by high-fat diet
Description: as §1
(3) Liver indices was determined by dividing the wet weight of the liver by the body weight of rats and multiplying by 100%, after liver tissue was isolated, washed with normal saline, dried using filter paper, and weighed following blood sampling from the abdominal aorta. (4) HE staining and oil red staining were performed on liver tissue samples obtained from the abdominal aorta of rats. The tissue was fixed in 10% neutral formalin, followed by embedding, slicing, dewaxing, staining, transparency treatment, and sealing using routine procedures. Microscopic examination was conducted to observe the pathological changes in rat liver tissues across different groups. Additionally, the NASH-CRN scoring system was employed to assess NAS scores. (5) Detection of Proteins Associated with Non-Alcoholic Steatohepatitis

[3] = system: rats with nonalcoholic steatohepatitis induced by a high-fat diet and CCl4; test: Serum biochemical indices, high-fat diet and CCl4 model; conditions: end of tenth week of administration, positive control group
Description: (§2) Starting from the seventh week, they received subcutaneous injections of a 30% CCl4 olive oil solution at a dosage of 0.2 ml/100 g behind their back twice per week for a total of four times. Once the model was successfully replicated, the corresponding drugs were administered orally (10 ml/kg) in each treatment group, and both the normal control group and the model group received equal volumes of a 0.5% CMC-Na solution once daily for ten consecutive weeks. Throughout the experimental period, the rats were provided with ad libitum access to food and water, while the animal chamber was maintained under controlled conditions of quietness, natural lighting, a temperature of 25±0.5° C., and a humidity level of 55±5%. The rats' body weights were measured once per week and recorded.
(§3) At the end of the tenth week of administration, all rats underwent a 16-hour fasting period following their final administration and were intraperitoneally injected with a 20% ulinastatin solution (10 ml/kg) for anesthesia. Subsequently, blood samples were collected from the abdominal aorta and allowed to stand for one hour, and then centrifuged at 4° C. for fifteen minutes at a speed of 3000 r/min. Finally, the upper serum was stored at −80° C. Following the instructions provided with the biochemical index detection kit, levels of HDL-C, LDL-C, NEFA, AST, ALT, UA, TC, TG, PCIII, IV-C LN and HA in rat serum were determined.
According to the kit instructions, the concentration of fasting plasma glucose (FPG) in serum was determined using colorimetry, while the concentration of fasting insulin (FINS) in serum was measured through radioimmunoassay.

[4] = system: rats with nonalcoholic steatohepatitis induced by a high-fat diet and CCl4; test: Four indices of serum hepatic fibrosis, high-fat diet and CCl4 model; conditions: positive control group
Description: as §2, §3

[5] = system: rats with nonalcoholic steatohepatitis induced by a high-fat diet and CCl4; test: Liver histopathology (HE, oil red, Masson staining), high-fat diet and CCl4 model; conditions: positive control groups and NR218 high-, medium-, low-dose groups
Description: as §2, with “The normal control group were fed a standard diet while the other groups were exclusively fed a high-fat diet consisting of 88% basal diet +10% lard +2% cholesterol for the initial six weeks. Starting” for “Starting”
After collecting blood samples from the abdominal aorta of rats, the liver tissue was isolated and fixed in a 10% neutral formalin solution. Following standard procedures for embedding, sectioning, dewaxing, staining, clearing, and sealing, the liver tissues were subjected to HE (hematoxylin-eosin), Masson's trichrome, and oil red staining techniques respectively. […]

Work on COC(=O)c1cc(OC)c2c(c1-c1c(CO)cc(OC)c3c1OCO3)OCO2 [Bicyclol] yielded a body weight ([1]; week 0 (pre-administration)) of 195.09 ± 3.95, a body weight ([1]; week 1 (pre-administration)) of 254.99 ± 12.09 and a body weight ([1]; week 2 (pre-administration)) of 307.37 ± 12.92. It also gave a body weight ([1]; week 3 (pre-administration)) of 343.86 ± 17.21, a body weight ([1]; week 4 (pre-administration)) of 379.51 ± 22.29 and a body weight ([1]; week 5 (pre-administration)) of 413.81 ± 26.94. The body weight ([1]; week 6 (pre-administration)) was 444.77 ± 32.35, the body weight ([1]; week 7 (pre-administration)) was 461.64 ± 35.88 and the body weight ([1]; week 8 (pre-administration)) was 493.67 ± 41.04. The body weight ([1]; week 9 (pre-administration)) was 510.27 ± 41.17, the body weight ([1]; week 10 (pre-administration)) was 526.93 ± 47.38 and the body weight ([1]; week 11 (pre-administration)) was 541.47 ± 50.20. The body weight ([1]; week 12 (pre-administration)) was 550.05 ± 58.70, the body weight ([1]; week 13) was 526.35 ± 68.66 and the body weight ([1]; week 14) was 515.27 ± 58.62. The body weight ([1]; week 15) was 519.07 ± 54.38, the body weight ([1]; week 16) was 539.33 ± 58.40 and the body weight ([1]; week 17) was 562.79 ± 61.59. The body weight ([1]; week 18) was 588.75 ± 70.94, the body weight ([1]; week 19) was 593.71 ± 72.81 and the body weight ([1]; week 20) was 586.53 ± 112.38. The “liver indices versus model group (in words)” value ([2]; NR218 at high, medium and low doses, P<0.01 or P<0.05) was “significant decrease compared to the model group”, the “Liver Indices” value ([2]; high-fat diet model, positive control group) was 3.77 ± 1.17 % and the HOMA-IR ([3]; FPG x FINS/22.5) was 5.48. It also gave an ALT ([3]; serum) of 44.39 U/L, an AST ([3]; serum) of 66.96 U/L and an HDL-C ([3]; serum) of 1.29 mmol/L. For the same molecule, the LDL-C ([3]; serum) was 0.90 mmol/L, the NEFA ([3]; serum) was 0.77 mmol/L and the TC ([3]; serum) was 1.85 mmol/L. For the same molecule, the TG ([3]; serum) was 0.63 mmol/L, the UA ([3]; serum) was 126 µmol/L and the HA [4] was 45.78 ± 22.99 µg/L. For the same molecule, the IV-C [4] was 13.22 ± 4.50 µg/L, the LN [4] was 110.64 ± 44.60 µg/L and the PC-III [4] was 8.78 ± 1.87 µg/L. For the same molecule, the “Oil red O staining of liver tissue (in words)” value [5] was “significantly ameliorated steatosis severity and reduced lipid droplet content”.
